Entries after “also recorded” stand apart in the source; their conditions may differ. Like-named read-outs stand apart in the source and are kept apart here. Positions of bridges follow the written chain, without caps; N, C: chain ends. Non-standard residues stand in square brackets, D forms with d. Residues, ends and D or L forms follow the SMILES beside them. R8 = C=CCCCCCC[C@@](C)(N)C(=O)O; S5 = C=CCCC[C@](C)(N)C(=O)O; Ahx = NCCCCCC(=O)O
Key:
[1] = biological target: T1, Mdm2 (1-125) (Homo sapiens, UniProt Q00987); test: Mdm2 competitive fluorescence anisotropy assay (FAM-labeled 12/1 peptide displacement); type: binding
T1 construct: Purified MDM2 (1-125) protein was titrated against 50 nM carboxyfluorescein (FAM)-labeled; GST (N, cleaved yes); made in house; host or cells: E. coli BL21 DE3 (pGEX-6P-1)

[2] = test system: HEK293 cells; test: Lactate dehydrogenase (LDH) release assay in HEK293 cells; type: cell-based; conditions: 2 hour treatment, 12.5, 25 and 50 µM, normalised to 0.1% Triton X100 (Figure S1); for LDH release in HEK293 cells, absence of serum (in words): 0% FCS; for LDH release in HEK293 cells, high serum conditions (in words): 10% FCS
Description: T22 cells or HEK 293 cells were seeded into a 96-well plate at a cell density of 5000 cells per well. Cells were maintained in Dulbecco’s Minimal Eagle Medium (DMEM) with 10% fetal bovine serum (FBS) and 1% (v/v) penicillin/streptomycin. The cells were incubated for 24 hours followed by cell media removal and addition of 90 µl of DMEM either with or without 10% FCS. Cells were then treated with compounds/peptide for 2 hours in DMEM with or without 10% FBS. Final working concentration of DMSO was 1% v/v. Corresponding negative control wells with 1% DMSO only were also prepared. Cytosolic lactate dehydrogenase release was detected using the cytoTox 96® non-radioactive cytotoxicity Assay kit (Promega) as per manufacturer’s instructions. Measurements were carried out using an Envision multiplate reader (Perkin-Elmer). Maximum LDH release was defined as the amount of LDH released when cells were lysed in the presence of 0.1% TRITON X-100 and was used to normalize the results. […]
to induce LDH release in HEK293 cells after a 2 hour treatment period in A) the absence of FCS and B) the presence of 10% FCS. Compounds were tested at concentrations of 12.5 µM, 25 µM and 50 µM. Results were normalized to maximal LDH release as measured by treatment with 0.1% Triton X100.
(1 picture or pasted object on this page, not shown here)

[3] = test system: T22 p53 reporter cells; test: p53 gene reporter assay (β-galactosidase) in T22 cells; type: cell-based, murine; conditions: 18 h, 1% DMSO, normalised to 25 µM Nutlin, 4 parameter fit to 10 point titration
Description: T22 cells, which were stably transfected with a p53 responsive β-galactosidase reporter, were seeded into a 96-well plate at a cell density of 8000 cells per well. Cells were also maintained in Dulbecco’s Minimal Eagle Medium (DMEM) with 10% fetal calf serum (FCS) and 1% (v/v) penicillin/streptomycin. The cells were incubated for 24 hours and followed by cell media removal and replacement with 90 µl of fresh DMEM either containing 10% FCS or 0% FCS. 10 µl of each compound was then added directly to each well and incubated for 18 hours. Final working concentration of DMSO was 1% v/v. […] Measurements were carried out using an Envision multiplate reader (Perkin-Elmer). […] This was then used to normalize the experimental results.

[4] = test system: T22 cells; test: Lactate dehydrogenase (LDH) release assay in T22 cells; type: cell-based, murine; conditions: for LDH Release (T22 Cells), 0% FCS (LDH50) / LDH Release (T22 Cells), 10% FCS (LDH50): 2 h treatment, normalised to 0.1% Triton X-100 lysis, 4 parameter fit to 10 point titration
Description: T22 cells or HEK 293 cells were seeded into a 96-well plate at a cell density of 5000 cells per well. Cells were maintained in Dulbecco’s Minimal Eagle Medium (DMEM) with 10% fetal bovine serum (FBS) and 1% (v/v) penicillin/streptomycin. The cells were incubated for 24 hours followed by cell media removal and addition of 90 µl of DMEM either with or without 10% FCS. Cells were then treated with compounds/peptide for 2 hours in DMEM with or without 10% FBS. Final working concentration of DMSO was 1% v/v. Corresponding negative control wells with 1% DMSO only were also prepared. Cytosolic lactate dehydrogenase release was detected using the cytoTox 96® non-radioactive cytotoxicity Assay kit (Promega) as per manufacturer’s instructions. Measurements were carried out using an Envision multiplate reader (Perkin-Elmer). Maximum LDH release was defined as the amount of LDH released when cells were lysed in the presence of 0.1% TRITON X-100 and was used to normalize the results.

[5] = biological target: T2, Mdm2:p53 complex (Homo sapiens, UniProt Q00987); test: NanoBRET Mdm2:p53 live cell assay; type: cell-based; conditions: HEK293 cells, 0% FCS versus 10% FCS
T2 construct: host or cells: HEK293
Description: all competitive types of experiments, it is assumed that [P]t > [L]st, otherwise considerable amounts of free labeled ligand would always be present and would interfere with measurements. Kd1 is the […]
experimentally determined as described in the previous paragraph. The FAM-labeled peptide was dissolved in dimethyl sulfoxide (DMSO) at 1 mM and diluted into experimental buffer. Readings were carried out with an Envision Multilabel Reader (PerkinElmer). Experiments were carried out […]
Tween 20 buffer. All titrations were carried out in triplicate. Curve-fitting was carried out using […]
Negative control titrations of the ligands under investigation were also carried out with the fluorescently labeled peptide (in the absence of MDM2) to ensure no interactions were occurring between the ligands and FAM-labeled peptide. […]
which would otherwise indicate an unintended interaction between the ligand and the FAM-labeled peptide to be displaced from the MDM2 binding site.
Nanobret Mdm2:p53 Cell Based Assay
HEK293 cells were seeded at a cell density of 250,000 cells per well into a 6 well plate and incubated overnight at 37 °C and 5% CO2 in DMEM with 0.3 mg/ml glutamine, 100 IU/ml penicillin, 100 μg/ml streptomycin and 10% fetal calf serum. Each well was transfected with a […]

T2 sequence (Q00987 whole entry, one chain of several): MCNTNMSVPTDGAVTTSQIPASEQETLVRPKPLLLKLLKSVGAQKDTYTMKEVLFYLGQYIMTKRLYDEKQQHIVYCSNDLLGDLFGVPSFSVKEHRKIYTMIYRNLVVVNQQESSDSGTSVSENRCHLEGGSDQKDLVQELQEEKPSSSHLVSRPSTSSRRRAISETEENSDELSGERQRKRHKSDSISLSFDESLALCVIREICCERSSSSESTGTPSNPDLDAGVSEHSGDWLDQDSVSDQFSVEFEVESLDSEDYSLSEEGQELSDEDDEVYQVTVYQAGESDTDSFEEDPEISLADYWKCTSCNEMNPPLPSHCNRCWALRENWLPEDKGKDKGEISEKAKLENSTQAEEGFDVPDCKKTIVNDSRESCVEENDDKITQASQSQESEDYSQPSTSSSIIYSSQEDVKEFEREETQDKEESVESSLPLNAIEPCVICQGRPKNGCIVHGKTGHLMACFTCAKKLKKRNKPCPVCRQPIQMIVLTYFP
T1 sequence (Q00987 1-125): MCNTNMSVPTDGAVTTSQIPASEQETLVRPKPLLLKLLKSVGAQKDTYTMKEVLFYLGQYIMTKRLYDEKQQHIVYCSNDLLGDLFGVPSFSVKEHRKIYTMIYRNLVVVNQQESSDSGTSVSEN

Row | improvement in affinity for Mdm2 over the library template sequence (sMTIDE-02) [1] | Kd ([1]; competitive fluorescence anisotropy, text refers to Table S1, read-out: Kd for binding to Mdm2 (as quoted in the text from Table S1)) | LDH release in HEK293 cells, high serum conditions (in words) [2] | LDH Release (T22 Cells), 10% FCS (LDH50) [4] | improvement of NanoBRET IC50 in serum free conditions over high serum conditions [5] | Structure (SMILES) | LDH release in HEK293 cells, absence of serum (in words) [2] | EC50 ([3]; 0% FCS, read-out: P53 Activation (T22 Cells), 0% FCS (p53ACT50 / EC50)) | EC50 ([3]; read-out: P53 Activation (T22 Cells), 10% FCS (p53ACT50 / EC50), 10% FCS) | LDH Release (T22 Cells), 0% FCS (LDH50) [4] | cytotoxicity (LDH leakage) in the library screen, absence of serum (in words) ([4]; absence of serum, within 2 hours after treatment)
1 | 2 fold | 24.4 ± 2.3 nM | absence of LDH release | No release | 4.5 fold | CC(=O)N[C@@H](CCCCN)C(=O)N[C@@H](CCCCN)C(=O)NCCCCCC(=O)N[C@H](C(=O)N[C@@H](CO)C(=O)N[C@@H](Cc1ccccc1)C(=O)N[C@]1(C)CCCCCCC=CCCC[C@@](C)(C(=O)N[C@@H](CCC(=O)O)C(=O)N[C@@H](CC(N)=O)C(=O)N[C@@H](Cc2ccccc2)C(N)=O)NC(=O)[C@H](CC(C)C)NC(=O)[C@H](CC(C)C)NC(=O)[C@H](C)NC(=O)[C@H](Cc2c[nH]c3ccccc23)NC(=O)[C@H](Cc2ccc(O)cc2)NC(=O)[C@H](CCC(=O)O)NC1=O)[C@@H](C)O [VIP-82] (Ac-KK[Ahx]TSF[R8]EYWALL[S5]ENF-NH2; staple 7-14) | remained inert | 800 ± 100 nM | 10000 ± 100 nM | did not cause any measurable LDH release; also recorded: No release | 
2 |  |  | absence of LDH release | No release | 9 fold | CC(=O)N[C@H](C(=O)N[C@@H](CO)C(=O)N[C@@H](Cc1ccccc1)C(=O)N[C@]1(C)CCCCCCC=CCCC[C@@](C)(C(N)=O)NC(=O)[C@H](CC(C)C)NC(=O)[C@H](CC(C)C)NC(=O)[C@H](C)NC(=O)[C@H](Cc2c[nH]c3ccccc23)NC(=O)[C@H](Cc2ccc(O)cc2)NC(=O)[C@H](CCC(=O)O)NC1=O)[C@@H](C)O [sMTIDE-02] | induced significant amounts of LDH release |  |  | 50.5 ± 1.7 µM | induced LDH leakage
